In PubChem BioAssay AID248 (DTP/NCI, 2004):
“And” between values parts separate entries of the source, which are not always exact repeats. Equal values may be shown once. Toxic doses and inconclusive results are not listed.

Tested on: L1210 leukemia ip in BDF1 mice, survival T/C
Assay: NCI In Vivo Anticancer Drug Screen. Data for tumor model L1210 Leukemia (intraperitoneal) in B6D2F1 (BDF1) mice
Settings: endpoint: mean survival time, higher = longer survival
How it was run: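 Value reflects the ratio of survival in compound-treated mice to survival in vehicle-treated controls, with both groups carrying the same transplanted tumor.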

[1] = dose: 50.0 mg/kg/injection, schedule: Q01DX009 (ip), vehicle: saline with Tween-80
[2] = dose: 100.0 mg/kg/injection, schedule: Q01DX009 (ip), vehicle: saline with Tween-80
[3] = dose: 100.0 mg/kg/injection, schedule: Q04DX003 (ip), vehicle: saline with Tween-80
[4] = dose: 200.0 mg/kg/injection, schedule: Q01DX009 (ip), vehicle: saline with Tween-80
[5] = dose: 200.0 mg/kg/injection, schedule: Q04DX003 (ip), vehicle: saline with Tween-80
[6] = dose: 100.0 mg/kg/injection, schedule: Q04DX003 (ip), vehicle: Klucel (hydroxypropylcellulose) (HPC)
[7] = dose: 100.0 mg/kg/injection, schedule: Q04DX003 (ip), vehicle: saline
[8] = dose: 200.0 mg/kg/injection, schedule: Q04DX003 (ip), vehicle: Klucel (hydroxypropylcellulose) (HPC)
[9] = dose: 200.0 mg/kg/injection, schedule: Q04DX003 (ip), vehicle: saline
[10] = dose: 400.0 mg/kg/injection, schedule: Q04DX003 (ip), vehicle: Klucel (hydroxypropylcellulose) (HPC)
[11] = dose: 400.0 mg/kg/injection, schedule: Q04DX003 (ip), vehicle: saline
[12] = dose: 400.0 mg/kg/injection, schedule: Q01DX009 (ip), vehicle: saline with Tween-80
[13] = dose: 400.0 mg/kg/injection, schedule: Q04DX003 (ip), vehicle: saline with Tween-80
[14] = dose: 100.0 mg/kg/injection, schedule: Q01DX009 (ip), vehicle: Klucel (hydroxypropylcellulose) (HPC)
[15] = dose: 200.0 mg/kg/injection, schedule: Q01DX009 (ip), vehicle: Klucel (hydroxypropylcellulose) (HPC)
[16] = dose: 400.0 mg/kg/injection, schedule: Q01DX009 (ip), vehicle: Klucel (hydroxypropylcellulose) (HPC)
[17] = dose: 100.0 mg/kg/injection, schedule: Q01DX001 (ip), vehicle: Klucel (hydroxypropylcellulose) (HPC)
[18] = dose: 200.0 mg/kg/injection, schedule: Q01DX001 (ip), vehicle: Klucel (hydroxypropylcellulose) (HPC)
[19] = dose: 400.0 mg/kg/injection, schedule: Q01DX001 (ip), vehicle: Klucel (hydroxypropylcellulose) (HPC)
[20] = dose: 100.0 mg/kg/injection, schedule: Q01DX001 (ip), vehicle: saline
[21] = dose: 200.0 mg/kg/injection, schedule: Q01DX001 (ip), vehicle: saline
[22] = dose: 400.0 mg/kg/injection, schedule: Q01DX001 (ip), vehicle: saline

Structure (SMILES): CCOC(=O)CCC(C)(c1ccc(O)cc1)c1ccc(O)cc1
- T/C [1]: 98 % of control
- T/C (dose: 50.0 mg/kg/injection, schedule: Q04DX003 (ip), vehicle: saline with Tween-80): 93 % of control
- T/C [2]: 96 % of control
- T/C [3]: 93 % of control
- T/C [4]: 96 % of control
- T/C [5]: 102 % of control

Structure (SMILES): C/C(=N/O)c1c[n+]([O-])ccn1
- T/C (dose: 100.0 mg/kg/injection, schedule: Q01DX009 (ip), vehicle: saline): 102 % of control
- T/C [6]: 94 % of control
- T/C [7]: 101 % of control
- T/C (dose: 200.0 mg/kg/injection, schedule: Q01DX009 (ip), vehicle: saline): 94 % of control
- T/C [8]: 94 % of control
- T/C [9]: 98 % of control
- T/C (dose: 400.0 mg/kg/injection, schedule: Q01DX009 (ip), vehicle: saline): 96 % of control
- T/C [10]: 100 % of control
- T/C [11]: 102 % of control

Structure (SMILES): COc1ccc(-c2sc(/N=C/c3cc(OC)c(OC)c(OC)c3)c(C#N)c2C)cc1OC
- T/C [2]: 98 % of control and 103 % of control
- T/C (dose: 100.0 mg/kg/injection, schedule: Q04DX002 (ip), vehicle: saline with Tween-80): 93 % of control and 88 % of control
- T/C [4]: 100 % of control and 88 % of control
- T/C (dose: 200.0 mg/kg/injection, schedule: Q04DX002 (ip), vehicle: saline with Tween-80): 93 % of control
- T/C [12]: 92 % of control and 87 % of control
- T/C (dose: 400.0 mg/kg/injection, schedule: Q04DX002 (ip), vehicle: saline with Tween-80): 94 % of control and 104 % of control

Structure (SMILES): CCCCCC(C)O[Si](C)C1(C)CCCCC1 (centres undefined)
- T/C [3]: 94 % of control
- T/C [5]: 94 % of control
- T/C [13]: 104 % of control

Structure (SMILES): COc1ccc(Cl)cc1NS(=O)(=O)c1ccc(Cl)c([N+](=O)[O-])c1
- T/C [14]: 98 % of control
- T/C [15]: 109 % of control
- T/C [16]: 98 % of control

Structure (SMILES): CN(C)/N=C(\CBr)c1ccc([N+](=O)[O-])cc1
- T/C [1]: 96 % of control
- T/C [2]: 96 % of control
- T/C [4]: 89 % of control

Structure (SMILES): CCN(CC)CCNC(C)=O
- T/C [7]: 104 % of control
- T/C [9]: 101 % of control
- T/C [11]: 97 % of control

Structure (SMILES): Cc1ccc(S(=O)(=O)N(C)c2cc(Cl)c(C(N)=O)c(Cl)c2)cc1
- T/C [17]: 93 % of control
- T/C (dose: 100.0 mg/kg/injection, schedule: Q01DX009 (ip), vehicle: saline sonified): 97 % of control
- T/C [2]: 98 % of control
- T/C [3]: 105 % of control
- T/C [18]: 95 % of control
- T/C (dose: 200.0 mg/kg/injection, schedule: Q01DX009 (ip), vehicle: saline sonified): 105 % of control
- T/C [4]: 90 % of control
- T/C [5]: 101 % of control
- T/C [19]: 100 % of control
- T/C (dose: 400.0 mg/kg/injection, schedule: Q01DX009 (ip), vehicle: saline sonified): 93 % of control
- T/C [12]: 92 % of control
- T/C [13]: 92 % of control

Structure (SMILES): CC(=O)OCC(OC(C)=O)C(OC1OC(COC(C)=O)C(OC(C)=O)C(OC(C)=O)C1OC(C)=O)C(OC(C)=O)C(C=O)OC(C)=O (centres undefined)
- T/C (dose: 50.0 mg/kg/injection, schedule: Q01DX009 (ip), vehicle: Klucel (hydroxypropylcellulose) (HPC)): 96 % of control
- T/C [14]: 89 % of control
- T/C [2]: 102 % of control
- T/C [3]: 102 % of control
- T/C [15]: 89 % of control
- T/C [4]: 102 % of control
- T/C [5]: 105 % of control
- T/C [12]: 102 % of control
- T/C [13]: 94 % of control

Structure (SMILES): CC1([N+](=O)[O-])COP(=O)(OCCc2ccccc2)OC1 (centres undefined)
- T/C (dose: 50.0 mg/kg/injection, schedule: Q01DX001 (ip), vehicle: saline): 95 % of control
- T/C [20]: 98 % of control
- T/C [21]: 93 % of control
- T/C [22]: 98 % of control

Structure (SMILES): O=C(NCc1ccccc1)NCc1ccccc1
- T/C [17]: 112 % of control
- T/C [18]: 97 % of control
- T/C [19]: 105 % of control

Structure (SMILES): O=NN(CCCl)C(=O)Nc1ccc2c(c1)CCCC2
- T/C (dose: 31.0 mg/kg/injection, schedule: Q01DX001 (ip), vehicle: carboxymethylcellulose (CMC)): 124 % of control
- T/C (dose: 84.0 mg/kg/injection, schedule: Q01DX001 (ip), vehicle: carboxymethylcellulose (CMC)): 186 % of control
- T/C (dose: 119.0 mg/kg/injection, schedule: Q01DX001 (ip), vehicle: carboxymethylcellulose (CMC)): 231 % of control
- T/C (dose: 125.0 mg/kg/injection, schedule: Q01DX001 (ip), vehicle: carboxymethylcellulose (CMC)): 188 % of control
- T/C (dose: 178.0 mg/kg/injection, schedule: Q01DX001 (ip), vehicle: carboxymethylcellulose (CMC)): 216 % of control
- T/C (dose: 187.0 mg/kg/injection, schedule: Q01DX001 (ip), vehicle: carboxymethylcellulose (CMC)): 215 % of control
- T/C (dose: 238.0 mg/kg/injection, schedule: Q01DX001 (ip), vehicle: carboxymethylcellulose (CMC)): 223 % of control
- T/C (dose: 250.0 mg/kg/injection, schedule: Q01DX001 (ip), vehicle: carboxymethylcellulose (CMC)): 89 % of control
- T/C (dose: 357.0 mg/kg/injection, schedule: Q01DX001 (ip), vehicle: carboxymethylcellulose (CMC)): 101 % of control

Structure (SMILES): O=S(=O)(O)SCCCNCCCCCCCCNCCCSS(=O)(=O)O
- T/C [3]: 101 % of control
- T/C [5]: 92 % of control
- T/C [13]: 88 % of control

Structure (SMILES): COc1ccc(OC)c2c(=O)cc(C)[nH]c12
- T/C [20]: 100 % of control
- T/C [21]: 92 % of control
- T/C [22]: 102 % of control

Structure (SMILES): CCOC(=O)C/C(C)=N/N=C(\CCOC)COC
- T/C (dose: 100.0 mg/kg/injection, schedule: Q01DX001 (ip), vehicle: carboxymethylcellulose (CMC)): 87 % of control
- T/C (dose: 200.0 mg/kg/injection, schedule: Q01DX001 (ip), vehicle: carboxymethylcellulose (CMC)): 103 % of control
- T/C (dose: 400.0 mg/kg/injection, schedule: Q01DX001 (ip), vehicle: carboxymethylcellulose (CMC)): 103 % of control

Structure (SMILES): O=S(=O)(c1ccccc1)N1C=CC=CC=C1
- T/C (dose: 25.0 mg/kg/injection, schedule: Q04DX002 (ip), vehicle: Klucel (hydroxypropylcellulose) (HPC)): 102 % of control
- T/C (dose: 50.0 mg/kg/injection, schedule: Q04DX002 (ip), vehicle: Klucel (hydroxypropylcellulose) (HPC)): 102 % of control
- T/C (dose: 100.0 mg/kg/injection, schedule: Q04DX002 (ip), vehicle: Klucel (hydroxypropylcellulose) (HPC)): 105 % of control

Structure (SMILES): COc1ccc(Cl)cc1NC(=O)Nc1ccccc1
- T/C [14]: 87 % of control
- T/C [6]: 99 % of control
- T/C [15]: 94 % of control
- T/C [8]: 97 % of control
- T/C [16]: 89 % of control
- T/C [10]: 92 % of control

Structure (SMILES): Cc1c2cnccc2c(C)c2c1c1ccccc1n2CCCN
- T/C (dose: 6.25 mg/kg/injection, schedule: Q04DX003 (ip), vehicle: saline): 97 % of control
- T/C (dose: 12.5 mg/kg/injection, schedule: Q04DX003 (ip), vehicle: saline): 97 % of control
- T/C (dose: 25.0 mg/kg/injection, schedule: Q01DX001 (oral), vehicle: saline): 96 % of control
- T/C (dose: 25.0 mg/kg/injection, schedule: Q04DX003 (ip), vehicle: saline): 89 % of control
- T/C (dose: 50.0 mg/kg/injection, schedule: Q01DX001 (oral), vehicle: saline): 100 % of control
- T/C (dose: 75.0 mg/kg/injection, schedule: Q01DX001 (oral), vehicle: saline): 105 % of control
- T/C (dose: 100.0 mg/kg/injection, schedule: Q01DX001 (oral), vehicle: saline): 86 % of control
- T/C (dose: 200.0 mg/kg/injection, schedule: Q01DX001 (oral), vehicle: saline): 96 % of control

Structure (SMILES): Cc1ccc(S(=O)(=O)N=Nc2c(O)[nH]c3ccccc23)cc1
- T/C (dose: 75.0 mg/kg/injection, schedule: Q04DX002 (ip), vehicle: gum acacia): 93 % of control
- T/C (dose: 150.0 mg/kg/injection, schedule: Q04DX002 (ip), vehicle: gum acacia): 93 % of control
- T/C (dose: 300.0 mg/kg/injection, schedule: Q04DX002 (ip), vehicle: gum acacia): 100 % of control

Structure (SMILES): Cc1cccc(N=C(N)N=C(N)N)c1
- T/C [3]: 102 % of control
- T/C [5]: 88 % of control

Structure (SMILES): O=C1/C(=C\c2ccc(O)cc2)Oc2cc(O)ccc21
- T/C (dose: 100.0 mg/kg/injection, schedule: Q01DX001 (ip), vehicle: saline with Tween-80): 98 % of control
- T/C (dose: 200.0 mg/kg/injection, schedule: Q01DX001 (ip), vehicle: saline with Tween-80): 87 % of control
- T/C (dose: 400.0 mg/kg/injection, schedule: Q01DX001 (ip), vehicle: saline with Tween-80): 90 % of control
